{
  "source": "PubChem BioAssay (NCI)",
  "assay_in_all_cases": "NCI-60 cell line screen, 48 h",
  "key": {"[1]": {"test_system": "SK-MEL-5 melanoma"}, "[2]": {"test_system": "HCT-15 colon"}, "[3]": {"test_system": "SK-MEL-2 melanoma"}, "[4]": {"test_system": "SNB-75 CNS"}, "[5]": {"test_system": "SF-295 CNS"}, "[6]": {"test_system": "A498 renal"}, "[7]": {"test_system": "A549 NSCLC"}, "[8]": {"test_system": "ACHN renal"}, "[9]": {"test_system": "OVCAR-8 ovarian"}, "[10]": {"test_system": "MCF7 breast"}, "[11]": {"test_system": "CCRF-CEM leukemia"}, "[12]": {"test_system": "MDA-MB-231 breast"}, "[13]": {"test_system": "EKVX NSCLC"}, "[14]": {"test_system": "K-562 leukemia"}, "[15]": {"test_system": "HCT-116 colon"}, "[16]": {"test_system": "IGROV1 ovarian"}, "[17]": {"test_system": "TK-10 renal"}, "[18]": {"test_system": "T-47D breast"}, "[19]": {"test_system": "OVCAR-4 ovarian"}, "[20]": {"test_system": "HCC-2998 colon"}, "[21]": {"test_system": "DU-145 prostate"}, "[22]": {"test_system": "SK-OV-3 ovarian"}, "[23]": {"test_system": "OVCAR-5 ovarian"}, "[24]": {"test_system": "U251 CNS"}, "[25]": {"test_system": "HOP-62 NSCLC"}, "[26]": {"test_system": "SW-620 colon"}, "[27]": {"test_system": "CAKI-1 renal"}, "[28]": {"test_system": "LOX IMVI melanoma"}, "[29]": {"test_system": "NCI-H226 lung"}, "[30]": {"test_system": "SN12C renal"}, "[31]": {"test_system": "KM12 colon"}, "[32]": {"test_system": "UACC-62 melanoma"}, "[33]": {"test_system": "NCI-H522 lung"}, "[34]": {"test_system": "COLO 205 colon"}, "[35]": {"test_system": "PC-3 prostate"}, "[36]": {"test_system": "HOP-92 NSCLC"}, "[37]": {"test_system": "M14 melanoma"}, "[38]": {"test_system": "SNB-19 CNS"}, "[39]": {"test_system": "SK-MEL-28 melanoma"}, "[40]": {"test_system": "786-0 renal"}, "[41]": {"test_system": "UO-31 renal"}, "[42]": {"test_system": "NCI-H23 lung"}, "[43]": {"test_system": "HL-60(TB) leukemia"}, "[44]": {"test_system": "RXF 393 renal"}, "[45]": {"test_system": "UACC-257 melanoma"}, "[46]": {"test_system": "SF-539 CNS"}, "[47]": {"test_system": "OVCAR-3 ovarian"}, "[48]": {"test_system": "HT29 colon"}, "[49]": {"test_system": "HS 578T breast"}, "[50]": {"test_system": "MDA-MB-435"}, "[51]": {"test_system": "NCI/ADR-RES ovarian"}, "[52]": {"test_system": "NCI-H460 lung"}, "[53]": {"test_system": "MALME-3M melanoma"}, "[54]": {"test_system": "SF-268 CNS"}, "[55]": {"test_system": "MOLT-4 leukemia"}},
  "note": "“And” between values parts separate entries of the source, which are not always exact repeats. Identical values can stand only once.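 In this assay, cells in 96-well plates receive the compound at five concentrations for 48 hours. Endpoints are linearly interpolated between the surrounding concentrations. GI50: concentration for 50% inhibition of growth. The concentration for full growth arrest is given as TGI.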",
  "data": [
    {"smiles": "O=[N+]([O-])c1ccc(OC2CC3C4C=CC3C2C4)c([N+](=O)[O-])c1", "note": "(stereo not drawn)", "values": [
      {"measurement": "TGI", "setting": "[1]", "result": "> 100", "unit": "µM"},
      {"measurement": "GI50", "setting": "[2]", "result": "> 100", "unit": "µM"},
      {"measurement": "TGI", "setting": "[2]", "result": "> 100", "unit": "µM"},
      {"measurement": "GI50", "setting": "[3]", "result": "90.4 µM and > 31.6 µM"},
      {"measurement": "TGI", "setting": "[3]", "result": "> 100", "unit": "µM"},
      {"measurement": "GI50", "setting": "[4]", "result": 34.5, "unit": "µM"},
      {"measurement": "TGI", "setting": "[4]", "result": "69.7 µM and > 31.6 µM"},
      {"measurement": "TGI", "setting": "[5]", "result": "49.9 µM and > 31.6 µM"},
      {"measurement": "GI50", "setting": "[6]", "result": "96.5 µM and > 31.6 µM"},
      {"measurement": "TGI", "setting": "[6]", "result": "> 100", "unit": "µM"},
      {"measurement": "TGI", "setting": "[7]", "result": "> 100", "unit": "µM"},
      {"measurement": "TGI", "setting": "[8]", "result": "> 100", "unit": "µM"},
      {"measurement": "TGI", "setting": "[9]", "result": "> 100", "unit": "µM"},
      {"measurement": "TGI", "setting": "[10]", "result": "> 100", "unit": "µM"},
      {"measurement": "GI50", "setting": "[11]", "result": "> 100 µM and 24 µM"},
      {"measurement": "TGI", "setting": "[11]", "result": "> 100", "unit": "µM"},
      {"measurement": "GI50", "setting": "[12]", "result": "11.3 µM and > 31.6 µM"},
      {"measurement": "TGI", "setting": "[12]", "result": "74 µM and > 31.6 µM"},
      {"measurement": "GI50", "setting": "[13]", "result": "56.5 µM and 22 µM"},
      {"measurement": "TGI", "setting": "[13]", "result": "> 100", "unit": "µM"},
      {"measurement": "TGI", "setting": "[14]", "result": "> 100", "unit": "µM"},
      {"measurement": "GI50", "setting": "[15]", "result": "66.2 µM and > 31.6 µM"},
      {"measurement": "TGI", "setting": "[15]", "result": "> 100", "unit": "µM"},
      {"measurement": "GI50", "setting": "[16]", "result": "91.5 µM and > 31.6 µM"},
      {"measurement": "TGI", "setting": "[16]", "result": "> 100", "unit": "µM"},
      {"measurement": "TGI", "setting": "[17]", "result": "> 100", "unit": "µM"},
      {"measurement": "GI50", "setting": "[18]", "result": "> 100", "unit": "µM"},
      {"measurement": "TGI", "setting": "[18]", "result": "> 100", "unit": "µM"},
      {"measurement": "TGI", "setting": "[19]", "result": "76.3 µM and > 31.6 µM"},
      {"measurement": "GI50", "setting": "[20]", "result": "> 100", "unit": "µM"},
      {"measurement": "TGI", "setting": "[20]", "result": "> 100", "unit": "µM"},
      {"measurement": "TGI", "setting": "[21]", "result": "> 100", "unit": "µM"},
      {"measurement": "GI50", "setting": "[22]", "result": "68.5 µM and > 31.6 µM"},
      {"measurement": "TGI", "setting": "[22]", "result": "> 100", "unit": "µM"},
      {"measurement": "GI50", "setting": "[23]", "result": "> 100", "unit": "µM"},
      {"measurement": "TGI", "setting": "[23]", "result": "> 100", "unit": "µM"},
      {"measurement": "TGI", "setting": "[24]", "result": "> 100", "unit": "µM"},
      {"measurement": "TGI", "setting": "[25]", "result": "> 100", "unit": "µM"},
      {"measurement": "GI50", "setting": "[26]", "result": "> 100", "unit": "µM"},
      {"measurement": "TGI", "setting": "[26]", "result": "> 100", "unit": "µM"},
      {"measurement": "TGI", "setting": "[27]", "result": "> 100", "unit": "µM"},
      {"measurement": "GI50", "setting": "[28]", "result": "> 100", "unit": "µM"},
      {"measurement": "TGI", "setting": "[28]", "result": "> 100", "unit": "µM"},
      {"measurement": "TGI", "setting": "[29]", "result": "> 100", "unit": "µM"},
      {"measurement": "GI50", "setting": "[30]", "result": "86.4 µM and > 31.6 µM"},
      {"measurement": "TGI", "setting": "[30]", "result": "> 100", "unit": "µM"},
      {"measurement": "GI50", "setting": "[31]", "result": "> 100", "unit": "µM"},
      {"measurement": "TGI", "setting": "[31]", "result": "> 100", "unit": "µM"},
      {"measurement": "GI50", "setting": "[32]", "result": "84.4 µM and > 31.6 µM"},
      {"measurement": "TGI", "setting": "[32]", "result": "> 100", "unit": "µM"},
      {"measurement": "TGI", "setting": "[33]", "result": "> 100", "unit": "µM"},
      {"measurement": "TGI", "setting": "[34]", "result": "> 100", "unit": "µM"},
      {"measurement": "GI50", "setting": "[35]", "result": "> 100", "unit": "µM"},
      {"measurement": "TGI", "setting": "[35]", "result": "> 100", "unit": "µM"},
      {"measurement": "TGI", "setting": "[36]", "result": "> 100 µM and 29.9 µM"},
      {"measurement": "TGI", "setting": "[37]", "result": "> 100", "unit": "µM"},
      {"measurement": "TGI", "setting": "[38]", "result": "> 100", "unit": "µM"},
      {"measurement": "GI50", "setting": "[39]", "result": "> 100", "unit": "µM"},
      {"measurement": "TGI", "setting": "[39]", "result": "> 100", "unit": "µM"},
      {"measurement": "TGI", "setting": "[40]", "result": "> 100", "unit": "µM"},
      {"measurement": "GI50", "setting": "[41]", "result": "> 100", "unit": "µM"},
      {"measurement": "TGI", "setting": "[41]", "result": "> 100", "unit": "µM"},
      {"measurement": "GI50", "setting": "[42]", "result": "> 100 µM and 26.8 µM"},
      {"measurement": "TGI", "setting": "[42]", "result": "> 100", "unit": "µM"},
      {"measurement": "GI50", "setting": "[43]", "result": 69.7, "unit": "µM"},
      {"measurement": "TGI", "setting": "[43]", "result": "> 100", "unit": "µM"},
      {"measurement": "TGI", "setting": "[44]", "result": "> 100", "unit": "µM"},
      {"measurement": "TGI", "setting": "[45]", "result": "> 100", "unit": "µM"},
      {"measurement": "TGI", "setting": "[46]", "result": "> 100", "unit": "µM"},
      {"measurement": "TGI", "setting": "[47]", "result": "> 100", "unit": "µM"},
      {"measurement": "GI50", "setting": "[48]", "result": "> 100 µM and 30 µM"},
      {"measurement": "TGI", "setting": "[48]", "result": "> 100", "unit": "µM"},
      {"measurement": "TGI", "setting": "[49]", "result": "> 100", "unit": "µM"},
      {"measurement": "TGI", "setting": "[50]", "result": "> 100", "unit": "µM"},
      {"measurement": "GI50", "setting": "[51]", "result": "76.4 µM and > 31.6 µM"},
      {"measurement": "TGI", "setting": "[51]", "result": "> 100", "unit": "µM"},
      {"measurement": "GI50", "setting": "[52]", "result": "> 100", "unit": "µM"},
      {"measurement": "TGI", "setting": "[52]", "result": "> 100", "unit": "µM"},
      {"measurement": "TGI", "setting": "[53]", "result": "> 100", "unit": "µM"},
      {"measurement": "GI50", "setting": "[54]", "result": "> 100", "unit": "µM"},
      {"measurement": "TGI", "setting": "[54]", "result": "> 100", "unit": "µM"},
      {"measurement": "GI50", "setting": "[55]", "result": "> 100 µM and 14.1 µM"},
      {"measurement": "TGI", "setting": "[55]", "result": "> 100 µM and 25.7 µM"}
    ]}
  ]
}
